Measurements taken from US8383637B2, “2-amino-quinazoline derivatives useful as inhibitors of β-secretase (BACE)” (Jansssen Pharmaceutica N.V., priority 2004, dated 2013).

Target: T1, β-secretase(BACE) (Homo sapiens, UniProt P56817)
T1 construct: purchased Panvera
Assay: BACE FS1% Inhibition Assay
Assay type: biochemical
Conditions: FS1 substrate
Protocol: BACE FS1% Inhibition Assay The following reagents were used in this assay: sodium acetate, PEG8000 (Sigma), DMSO, HEPES, FS1 substrate [[…]] […] The FS1-substrate stock solution was prepared in DMSO as a 10 mg/mL solution. The FS1-substrate working solution was prepared by diluting the 10 mg/mL stock solution with substrate assay buffer to a final concentration of 300 μg/mL. The β-secretase (BACE) working solution was prepared by diluting a 0.83 mg/mL BACE stock solution with enzyme assay buffer to a final concentration of 4 μg/mL. Test compounds were dissolved in DMSO to 10 mM. […] The screening procedure for this assay was as follows: 15 μL of BACE working solution was pipetted into each well of a 96-well plate. To each well was then pipetted 2 μL of test compound at the selected concentration. Test compound and BACE were then mixed with a pipettor and incubated for 20 min at room temperature. To each well was then added 10 μL of the FS1 substrate working solution. The plates were then incubated for 1 hour at room temperature. […] The procedure for the blank was as follows. 15 μL of assay buffer was pipetted into each well to be used as a blank control. To each well was then added 2 μL of vehicle and 10 μL of FS1-substrate working solution. The plates were then incubated for 1 hour at room temperature. […] The procedure for the positive control was as follows: 15 μL of BACE working solution was pipetted into each well to be used as a positive control. To each well was then pipetted 2 μL of vehicle. Vehicle and BACE were then mixed with a pipettor and incubated for 20 min at room temperature. To each well was then added 10 μL of the FS1 substrate working solution. The plates were then incubated for 1 hour at room temperature. […] For test compounds, % inhibition was determined at each concentration as follows: [formula]

T1 sequence (P56817 46-501): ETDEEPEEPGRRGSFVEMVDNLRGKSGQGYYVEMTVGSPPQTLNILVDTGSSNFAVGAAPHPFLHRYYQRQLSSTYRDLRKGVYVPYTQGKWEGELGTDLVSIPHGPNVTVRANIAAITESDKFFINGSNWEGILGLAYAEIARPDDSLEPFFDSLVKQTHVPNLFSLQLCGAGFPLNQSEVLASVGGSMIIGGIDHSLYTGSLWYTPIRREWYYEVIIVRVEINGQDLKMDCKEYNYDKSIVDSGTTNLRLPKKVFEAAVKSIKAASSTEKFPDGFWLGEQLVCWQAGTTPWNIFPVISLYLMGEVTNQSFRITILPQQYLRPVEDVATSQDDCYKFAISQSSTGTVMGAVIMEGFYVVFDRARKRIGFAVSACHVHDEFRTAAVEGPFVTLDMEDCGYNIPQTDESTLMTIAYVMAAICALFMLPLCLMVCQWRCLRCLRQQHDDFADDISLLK

| Compound | % Inhibition (FS) (0.3 μM test compound) [%] | % Inhibition (FS) (1 μM test compound) [%] | % Inhibition (FS) (3 μM test compound) [%] | % Inhibition (FS) 0.3 μM (0.3 μM test compound) [%] | % Inhibition (FS) 1 μM (1 μM test compound) [%] | % Inhibition (FS) 3 μM (3 μM test compound) [%] | other results |
| --- | --- | --- | --- | --- | --- | --- | --- |
| COC(=O)[C@H]1CC[C@H](NC(=O)CC[C@@H](C2CCOCC2)N2Cc3cc(Oc4ccccc4)ccc3N=C2N)CC1 [Compound 747] | 41 | 74 | 104 |  |  |  |  |
| Cc1cc(C(=O)NCCN2Cc3cc(-c4cccc(C(F)(F)F)c4)ccc3N=C2N)c(C)o1 [Compound 590] |  |  |  | <30 | <30 | <30 |  |
| COc1ccc(-c2ccc3c(c2)CN(C(CCC(=O)N(C)C2CCCCC2)C2CCCCC2)C(N)=N3)cc1 (racemic) [Compound 226] |  |  |  | <30 | <30 | 54 |  |
| CN(Cc1cccc(CC(=O)O)c1)C(=O)CCC(C1CCCCC1)N1Cc2cc(Oc3ccccc3)ccc2N=C1N (stereo not drawn) [Compound 778] | <30 | 77 | 113 |  |  |  |  |
| NC1=Nc2ccc(-c3ccccc3)cc2CN1CCNC(=O)CCC(F)(F)F [Compound 684] | 33 | 38 | 78 |  |  |  |  |
| CCCC(=O)NCCN1Cc2cc(-c3ccncc3)ccc2N=C1N [Compound 570] |  |  |  | <30 | <30 | <30 |  |
| CN(C(=O)c1ccc2c(c1)C(N1Cc3cc(Oc4ccccc4)ccc3N=C1N)c1ccccc1-2)C1CCCCC1 (stereo not drawn) [Compound 125, 9-(2-Amino-6-phenoxy-4H-quinazolin-3-yl)-9H-fluorene-2-carboxylic acid cyclohexyl-methyl-amide] |  |  |  |  |  |  | inhibition at 3 µM (3 μM test compound, read-out: % Inhibition (FS) 3 μM): 42%; inhibition at 10 µM (10 μM test compound, read-out: % Inhibition (FS) 10 μM): 80% |
| COc1cccc(C(=O)NCCN2Cc3cc(Oc4ccccc4)ccc3N=C2N)c1 [Compound 217] |  |  |  | <30 | <30 | 56 |  |
| CCCCC(CC)C(=O)NCCN1Cc2cc(-c3ccccc3C)ccc2N=C1N (stereo not drawn) [Compound 662] | 66 | 97 | 109 |  |  |  |  |
| CN(C(=O)c1cccc(CN2Cc3cc(Oc4ccccc4-c4nc5ccccc5s4)ccc3N=C2N)c1)C1CCCCC1 [Compound 470] |  |  |  | <30 | <30 | 31 |  |
| CC1CCC(NC(=O)c2cccc(CN3Cc4cc(Oc5ccccc5)ccc4N=C3N)c2)CC1 (stereo not drawn) [Compound 213] |  |  |  | <30 | <30 | <30 |  |
| NC1=Nc2ccc(Oc3ccccc3)cc2CN1CC1CCN(C(=O)C23CC4CC(CC(C4)C2)C3)CC1 [Compound 527] |  |  |  | <30 | <30 | 51 |  |
| CN(Cc1cc(-c2ccccc2)on1)C(=O)CC[C@@H](C1CCCCC1)N1Cc2cc(-c3ccccc3F)ccc2N=C1N [Compound 724] | 38 | <30 | 65 |  |  |  |  |
| CN(C(=O)CCC(C1CCCCC1)N1Cc2cc(Oc3ccccc3)ccc2N=C1N)c1ccc(C(=O)O)cc1 (stereo not drawn) [Compound 766] | <30 | <30 | <30 |  |  |  |  |
| CN(C(=O)CCC(C1CCOCC1)N1Cc2cc(Oc3ccccc3)ccc2N=C1N)C1CCC(C(=O)O)CC1 (stereo not drawn) [Compound 743] | 107 | 125 | 130 |  |  |  |  |
| CCCC=Cc1ccc2c(c1)CN(CCNC(=O)c1cccc(C#N)c1)C(N)=N2 [Compound 568] |  |  |  | <30 | <30 | <30 |  |
| CC(C)(C)C(=O)NCCN1Cc2cc(-c3cnc4ccccc4c3)ccc2N=C1N [Compound 674] | 36 | <30 | 41 |  |  |  |  |
| CCCC(CCCC(=O)NC1CCCCC1)N1Cc2cc(Oc3ccccc3)ccc2N=C1N (stereo not drawn) [Compound 91] |  |  |  |  |  | 68 | % Inhibition (FS) 10 μM (10 μM test compound): 117% |
| NC1=Nc2ccc(Oc3ccccc3)cc2CN1C(CNC(=O)C1CCCCC1)Cc1ccc(O)cc1 (stereo not drawn) [Compound 614] |  |  |  | <30 | <30 | <30 |  |
| CCCc1cccc(C)c1Oc1ccc2c(c1)CN(Cc1cccc(C(=O)N(C)C3CCCCC3)c1)C(N)=N2 [Compound 482] |  |  |  | <30 | <30 | 43 |  |
| NC1=Nc2ccc(-c3cccc(C(F)(F)F)c3)cc2CN1CCNC(=O)Cc1ccccc1 [Compound 600] |  |  |  | <30 | <30 | 41 |  |
| CCCCCCCCC(CCC(=O)NC1CCCCCC1)N1Cc2cc(Oc3ccccc3)ccc2N=C1N (stereo not drawn) [Compound 208] |  |  |  | <30 | <30 | 67 |  |
| NC1=Nc2ccc(Oc3ccccc3)cc2CN1C(c1ccccc1)c1cccc(C(=O)N(C2CCCCC2)C2CCCCC2)c1 (stereo not drawn) [Compound 132] |  |  |  |  |  | 54 | % Inhibition (FS) 10 μM (10 μM test compound): 118% |

Further lines, with some results ahead:

| % Inhibition (FS) (0.3 μM test compound) [%] | % Inhibition (FS) (1 μM test compound) [%] | % Inhibition (FS) (3 μM test compound) [%] | % Inhibition (FS) 0.3 μM (0.3 μM test compound) [%] | % Inhibition (FS) 1 μM (1 μM test compound) [%] | % Inhibition (FS) 3 μM (3 μM test compound) [%] | Compound | other results |
| --- | --- | --- | --- | --- | --- | --- | --- |
| 51 | 88 | 99 |  |  |  | Cc1ccccc1-c1ccc2c(c1)CN(CCNC(=O)CCC(F)(F)F)C(N)=N2 [Compound 678] |  |
| 78 | 99 | 103 |  |  |  | Cc1ccccc1-c1ccc2c(c1)CN(CCNC(=O)CC(C)C(F)(F)F)C(N)=N2 (stereo not drawn) [Compound 679] |  |
| <30 | 30 | <30 |  |  |  | NC1=Nc2ccc(-c3cnc4ccccc4c3)cc2CN1CCNC(=O)C1CCCC1 [Compound 671] |  |
| <30 | <30 | <30 |  |  |  | NC1=Nc2ccc(-c3ccc4ccccc4c3)cc2CN1CCNC(=O)C1CCC1 [Compound 663] |  |
|  |  |  | <30 | 37 | 74 | CC(=O)Nc1cccc(-c2ccc3c(c2)CN(Cc2cccc(C(=O)N(C)C4CCCCC4)c2)C(N)=N3)c1 [Compound 166] |  |
|  |  |  | <30 | <30 | <30 | COc1ccccc1-c1ccc2c(c1)CN(CCNC(=O)CN)C(N)=N2 [Compound 490] |  |
|  |  |  | <30 | <30 | <30 | COc1cccc(C)c1Oc1ccc2c(c1)CN(Cc1cccc(C(=O)N(C)C3CCCCC3)c1)C(N)=N2 [Compound 468] |  |
| <30 | 72 | 104 |  |  |  | COC1CCCC(C(=O)NCCN2Cc3cc(-c4ccccc4C)ccc3N=C2N)C1 (stereo not drawn) [Compound 696] |  |
|  |  |  | <30 | <30 | 55 | COc1ccc(Sc2ccc3c(c2)CN(Cc2cccc(C(=O)N(C)C4CCCCC4)c2)C(N)=N3)cc1OC [Compound 411] |  |
| <30 | 36 | 85 |  |  |  | COc1cccc(F)c1-c1ccc2c(c1)CN(CCNC(=O)C1CCC(C(F)(F)F)CC1)C(N)=N2 (stereo not drawn) [Compound 700] |  |
|  |  |  | <30 | <30 | 48 | COc1ccc(F)cc1-c1ccc2c(c1)CN(CCNC(=O)C1CCCCC1)C(N)=N2 [Compound 631] |  |
